# Test results as given in ChEMBL document CHEMBL5543121, “Drug Repurposing of ACT001 to Discover Novel Promising Sulfide Prodrugs with Improved Safety and Potent Activity for Neutrophil-Mediated Antifungal Immunotherapy” (J Med Chem, 2024).
# The source made the active and inactive calls. No cut-off for these calls is given here.
# Legend:
# [1] = Inhibition of fungal curdlan induced PD-L1 expression in mouse neutrophils at 40 uM relative to control; assay type: functional, Neutrophil; details: Mus musculus, Neutrophil
# [2] = Cytotoxicity against mouse neutrophils assessed as cell viability at 40 uM relative to control; assay type: toxicity, cell-based, Neutrophil; details: mouse neutrophils, read-out: Activity
# Candida albicans [3] = experiment: Antifungal activity against candida albicans SC5314 infected in mouse assessed as reduction in PD-L1 positive Ly6G-positive neutrophils in kidney at 200 mg/kg, po administered on day 1 and 3; assay type: functional, organism-based; details: time 1-3 day
# [4] = test system: Polymorphonuclear neutrophil; experiment: Inhibition of fungal curdlan induced CXCL2 protein expression in mouse polymorphonuclear neutrophils at 40 uM incubated for 4 hrs by ELISA; assay type: functional, cell-based
# Neutrophil [5] = experiment: Induction of apoptosis in mouse neutrophils assessed as early apoptotic cells at 20 uM incubated for 16 hrs by Annexin V-FITC/PI staining based flow cytometry analysis (reference value: 26.9%); assay type: toxicity, cell-based
# Neutrophil [6] = experiment: Induction of apoptosis in mouse neutrophils assessed as late apoptotic cells at 20 uM incubated for 16 hrs by Annexin V-FITC/PI staining based flow cytometry analysis (reference value: 24.4%); assay type: toxicity, cell-based
# Neutrophil [7] = experiment: Induction of apoptosis in mouse neutrophils assessed as dead cells at 20 uM incubated for 16 hrs by Annexin V-FITC/PI staining based flow cytometry analysis (reference value: 2.04%); assay type: toxicity, cell-based
# Neutrophil [8] = experiment: Induction of apoptosis in mouse neutrophils assessed as early apoptotic cells at 40 uM incubated for 16 hrs by Annexin V-FITC/PI staining based flow cytometry analysis (reference value: 26.9%); assay type: toxicity, cell-based
# Neutrophil [9] = experiment: Induction of apoptosis in mouse neutrophils assessed as late apoptotic cells at 40 uM incubated for 16 hrs by Annexin V-FITC/PI staining based flow cytometry analysis (reference value: 24.4%); assay type: toxicity, cell-based
# [10] = Cytotoxicity against mouse neutrophils assessed as reduction in cell viability incubated for 16 hrs by flow cytometry analysis; assay type: toxicity, cell-based, Neutrophil
# [11] = Therapeutic index, ratio of IC50 for cytotoxicity against mouse neutrophils to IC50 for inhibition of fungal curdlan induced PD-L1 expression in mouse neutrophils; assay type: toxicity; details: read-out: Ratio IC50
# [12] = Potency index, ratio of test compound IC50 to ACT001 IC50 for cytotoxicity against mouse neutrophils assessed as reduction in cell viability incubated for 16 hrs by flow cytometry analysis; assay type: toxicity, cell-based, Neutrophil; details: read-out: Ratio IC50
# [13] = Cmax in male Sprague-Dawley rat at 10 mg/kg, po by LC-MS/MS analysis; assay type: ADME, organism-based; details: in vivo
# [14] = Half life in male Sprague-Dawley rat at 10 mg/kg, po by LC-MS/MS analysis; assay type: ADME, organism-based; details: in vivo
# [15] = Tmax in male Sprague-Dawley rat at 10 mg/kg, po by LC-MS/MS analysis; assay type: ADME, organism-based; details: in vivo
# [16] = AUC (0 to infinity) in male Sprague-Dawley rat at 10 mg/kg, po by LC-MS/MS analysis; assay type: ADME, organism-based; details: in vivo
# [17] = Initial plasma concentration in male Sprague-Dawley rat at 2 mg/kg, iv by LC-MS/MS analysis; assay type: ADME, organism-based
# [18] = Cmax in male Sprague-Dawley rat at 2 mg/kg, iv by LC-MS/MS analysis; assay type: ADME, organism-based; details: in vivo
# [19] = Half life in male Sprague-Dawley rat at 2 mg/kg, iv by LC-MS/MS analysis; assay type: ADME, organism-based; details: in vivo
# [20] = Tmax in male Sprague-Dawley rat at 2 mg/kg, iv by LC-MS/MS analysis; assay type: ADME, organism-based; details: in vivo
# [21] = AUC (0 to t) in male Sprague-Dawley rat at 2 mg/kg, iv by LC-MS/MS analysis; assay type: ADME, organism-based; details: in vivo
# [22] = AUC (0 to infinity) in male Sprague-Dawley rat at 2 mg/kg, iv by LC-MS/MS analysis; assay type: ADME, organism-based; details: in vivo
# [23] = MRT (0 to t) in male Sprague-Dawley rat at 2 mg/kg, iv by LC-MS/MS analysis; assay type: ADME, organism-based; details: in vivo
# Candida albicans [24] = experiment: Induction of neutrophil-mediated antifungal immunity against Candida albicans SC5314 infected in mouse assessed as reduction in accumulation of Ly6G positive neutrophils in bone marrow at 50 to 100 mg/kg, po administered once a day for 3 days; assay type: functional, organism-based; details: dose 50-100 mg/kg, time 3.0 day
# Candida albicans [25] = experiment: Induction of neutrophil-mediated antifungal immunity against Candida albicans SC5314 infected in mouse assessed as reduction in fungal clusters in kidney at 50 to 100 mg/kg, po administered once a day for 3 days by PAS staining based analysis; assay type: functional, organism-based; details: dose 50-100 mg/kg, time 3.0 day
# [26] = Acute toxicity in C57BL/6 mouse assessed as signs of morbidity at 500 mg/kg, po administered as single dose and measured every day for 14 days; assay type: organism-based; details: in vivo, 336 h, time 14 day
# [27] = Acute toxicity in C57BL/6 mouse assessed as abnormal behavior at 500 mg/kg, po administered as single dose and measured every day for 14 days; assay type: organism-based; details: in vivo, 336 h, time 14 day
# [28] = Acute toxicity in C57BL/6 mouse assessed as body weight loss at 500 mg/kg, po administered as single dose and measured every day for 14 days; assay type: organism-based; details: in vivo, 336 h, time 14 day
# [29] = Subacute toxicity in C57BL/6 mouse assessed as animal death at 100 mg/kg, po administered daily for 14 days and measured every day; assay type: organism-based; details: in vivo, 336 h, time 14 day
# [30] = Subacute toxicity in C57BL/6 mouse assessed as signs of morbidity at 100 mg/kg, po administered daily for 14 days and measured every day; assay type: organism-based; details: in vivo, 336 h, time 14 day
# [31] = Acute toxicity in C57BL/6 mouse assessed as change in heart weight at 500 mg/kg, po administered as single dose and measured after 14 days; assay type: organism-based; details: in vivo, 336 h, time 14 day
# [32] = Acute toxicity in C57BL/6 mouse assessed as change in lung weight at 500 mg/kg, po administered as single dose and measured after 14 days; assay type: organism-based; details: in vivo, 336 h, time 14 day
# [33] = Acute toxicity in C57BL/6 mouse assessed as change in kidney weight at 500 mg/kg, po administered as single dose and measured after 14 days; assay type: organism-based; details: in vivo, 336 h, time 14 day
# [34] = Acute toxicity in C57BL/6 mouse assessed as histopathological changes in heart at 500 mg/kg, po administered as single dose and measured after 14 days; assay type: organism-based; details: in vivo, 336 h, time 14 day
# [35] = Subacute toxicity in C57BL/6 mouse assessed as change in kidney weight at 100 mg/kg, po administered daily for 14 days; assay type: organism-based; details: in vivo, 336 h, time 14 day
# [36] = Subacute toxicity in C57BL/6 mouse assessed as histopathological changes in heart at 100 mg/kg, po administered daily for 14 days; assay type: organism-based; details: in vivo, 336 h, time 14 day
# [37] = Subacute toxicity in C57BL/6 mouse assessed as histopathological changes in spleen at 100 mg/kg, po administered daily for 14 days; assay type: organism-based; details: in vivo, 336 h, time 14 day
# [38] = Subacute toxicity in C57BL/6 mouse assessed as histopathological changes in kidney at 100 mg/kg, po administered daily for 14 days; assay type: organism-based; details: in vivo, 336 h, time 14 day
# [39] = Acute toxicity in C57BL/6 mouse assessed as effect on ALT level in serum at 500 mg/kg, po administered as single dose and measured every day for 14 days; assay type: organism-based; details: in vivo, 336 h, time 14 day
# [40] = Subacute toxicity in C57BL/6 mouse assessed as effect on creatinine level in serum at 100 mg/kg, po administered daily for 14 days and measured every day; assay type: organism-based; details: in vivo, 336 h, time 14 day
# [41] = Subacute toxicity in C57BL/6 mouse assessed as effect on ALT level in serum at 100 mg/kg, po administered daily for 14 days and measured every day; assay type: organism-based; details: in vivo, 336 h, time 14 day
smiles,measurement,setting,value
C[C@@]1(O)CC[C@]23O[C@@]2(C)CC[C@@H]2[C@H](OC(=O)[C@H]2CS(=O)(=O)c2c(Cl)cccc2Cl)[C@@H]13,inhibition at 40 µM,[1],80.2%
same,viability at 40 µM,[2],81.5%
same,Activity,Candida albicans [3],Active
same,inhibition,[4],Active
same,Activity,Neutrophil [5],29.3%
same,Activity,Neutrophil [6],27%
same,Activity,Neutrophil [7],2.24%
same,Activity,Neutrophil [8],28.5%
same,Activity,Neutrophil [9],30.8%
same,IC50 at 16 h,[10],> 320 µM
same,selectivity ratio,[11],> 85.1
same,selectivity ratio at 16 h,[12],10.9
same,Cmax,[13],114 ng/mL
same,half-life,[14],87.6 min
same,Tmax,[15],19.8 min
same,AUC(0-inf),[16],182 ng·h/mL
same,C0,[17],191 ng/mL
same,Cmax,[18],175 ng/mL
same,half-life,[19],10.2 min
same,Tmax,[20],8.4 min
same,AUC(0-t),[21],73.9 ng·h/mL
same,AUC(0-inf),[22],75.4 ng·h/mL
same,MRT last,[23],15 min
same,Activity,Candida albicans [24],Active
same,Activity,Candida albicans [25],Active
same,Activity,[26],Non-Toxic
same,Activity,[27],Non-Toxic
same,Activity,[28],Non-Toxic
same,Activity,[29],Non-Toxic
same,Activity,[30],Non-Toxic
same,Activity,[31],Non-Toxic
same,Activity,[32],Non-Toxic
same,Activity,[33],Non-Toxic
same,Activity,[34],Non-Toxic
same,Activity,[35],Non-Toxic
same,Activity,[36],Non-Toxic
same,Activity,[37],Non-Toxic
same,Activity,[38],Non-Toxic
same,Activity,[39],Non-Toxic
same,Activity,[40],Non-Toxic
same,Activity,[41],Non-Toxic
